# From paper PMC5701749 (Biochemistry, 2017)
# “And” between values parts separate entries of the source, which are not always exact repeats. Equal entries are not always repeated. Where two headings read alike, the source gives them in different places.
# Tests used:
# mouse P-gp mdr1a [1] = target: T1, mouse P-gp mdr1a (Mus musculus, UniProt P21447); settings: DMPC nanodiscs; for V2 (rate of ATP hydrolysis at infinite substrate concentration): footnote a = parameter reaching constraint set at >0; for K1 (substrate concentration for half-maximal stimulation of ATPase activity): footnote d = ambiguous, lack of ATPase stimulation
# T1 sequence (P21447 whole entry): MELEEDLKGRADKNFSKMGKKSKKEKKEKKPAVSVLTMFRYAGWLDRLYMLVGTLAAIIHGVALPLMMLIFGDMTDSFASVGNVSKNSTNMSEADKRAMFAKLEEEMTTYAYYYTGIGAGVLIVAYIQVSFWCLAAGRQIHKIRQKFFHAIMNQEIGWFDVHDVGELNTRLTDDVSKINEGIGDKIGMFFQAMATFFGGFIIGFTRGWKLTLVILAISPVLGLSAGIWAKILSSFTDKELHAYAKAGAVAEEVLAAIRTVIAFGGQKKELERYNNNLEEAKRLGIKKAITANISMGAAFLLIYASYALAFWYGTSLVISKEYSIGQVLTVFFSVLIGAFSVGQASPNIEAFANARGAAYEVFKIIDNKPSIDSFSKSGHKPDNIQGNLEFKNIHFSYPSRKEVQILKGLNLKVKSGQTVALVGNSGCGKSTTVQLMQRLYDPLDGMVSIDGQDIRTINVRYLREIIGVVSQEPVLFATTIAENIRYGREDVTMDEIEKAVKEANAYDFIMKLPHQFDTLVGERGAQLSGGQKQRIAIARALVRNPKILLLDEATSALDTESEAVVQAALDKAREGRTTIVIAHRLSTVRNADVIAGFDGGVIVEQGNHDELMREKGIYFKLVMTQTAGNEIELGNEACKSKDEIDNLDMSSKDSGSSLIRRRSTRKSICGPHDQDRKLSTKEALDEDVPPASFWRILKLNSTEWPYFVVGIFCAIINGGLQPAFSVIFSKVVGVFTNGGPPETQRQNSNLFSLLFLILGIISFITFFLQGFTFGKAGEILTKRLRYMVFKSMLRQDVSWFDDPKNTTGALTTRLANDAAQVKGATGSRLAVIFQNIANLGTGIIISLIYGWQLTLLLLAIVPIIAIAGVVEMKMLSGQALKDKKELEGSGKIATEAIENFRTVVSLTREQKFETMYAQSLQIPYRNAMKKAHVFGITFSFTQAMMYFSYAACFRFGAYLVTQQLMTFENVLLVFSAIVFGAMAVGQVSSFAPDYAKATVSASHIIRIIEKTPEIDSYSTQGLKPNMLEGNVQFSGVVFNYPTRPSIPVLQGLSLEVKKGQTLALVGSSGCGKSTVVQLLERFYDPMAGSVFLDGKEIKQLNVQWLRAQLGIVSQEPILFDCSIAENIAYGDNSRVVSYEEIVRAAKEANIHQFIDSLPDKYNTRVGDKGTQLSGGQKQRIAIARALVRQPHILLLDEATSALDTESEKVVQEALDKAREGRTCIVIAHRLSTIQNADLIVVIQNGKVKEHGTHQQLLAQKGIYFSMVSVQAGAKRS
# [2] = FCS binding of fluorescent probes to empty nanodiscs; settings: ND = not determined because of minimal binding
# mouse P-gp mdr1a [3] = target: T1, mouse P-gp mdr1a; settings: E. coli lipid nanodiscs; for V1 (maximal rate of ATP hydrolysis when there is only activation): footnote b = parameter held constant
# murine P-gp [4] = target: T2, murine P-gp (Mus musculus, UniProt P21447)
# T2 sequence (P21447 whole entry): as above
# murine P-gp [5] = target: T2, murine P-gp; settings: for displacement of BD-verapamil from P-gp (in words) / displacement of BD-vinblastine from P-gp (in words): FCS competition; for n (Hill coefficient): drug displacing BD-vinblastine from P-gp nanodiscs
# murine P-gp [6] = target: T2, murine P-gp; experiment: biochemical
# mouse P-gp = mouse P-gp (Mus musculus, UniProt P21447); experiment: ATPase assay in mouse P-gp vesicles; assay type: biochemical; settings: concentration range studied
# Chain of mouse P-gp (P21447 whole entry): as above
# murine P-gp [7] = target: T2, murine P-gp; assay type: biochemical; settings: inside-out murine P-gp vesicles, ATP-dependent, 117 nM Flutax-2, 37 °C
# [8] = ATP and Vi (1 mM ATP, 240 μM Vi), vanadate-trapped, apparent KD
# [9] = apo (control), nucleotide-free, apparent KD, high-affinity site
Molecule,V2 (rate of ATP hydrolysis at infinite substrate concentration) (mouse P-gp mdr1a [1]),Kd [2],V2 (rate of ATP hydrolysis at infinite substrate concentration) (mouse P-gp mdr1a [3]),stimulation of ATPase activity (in words) (mouse P-gp mdr1a [3]),V1 (maximal rate of ATP hydrolysis when there is only activation) (mouse P-gp mdr1a [3]),"Kd (murine P-gp [4]; AMP-PNP (1 mM), apparent KD) [nM]",Kd (murine P-gp [4]; [8]) [nM],Kd (murine P-gp [4]; [9]) [nM],K1 (substrate concentration for half-maximal stimulation of ATPase activity) (mouse P-gp mdr1a [1]),displacement of BD-verapamil from P-gp (in words) (murine P-gp [5]),displacement of BD-vinblastine from P-gp (in words) (murine P-gp [5]),n (Hill coefficient) (murine P-gp [5]),also measured
BODIPY vinblastine [BD-vinblastine],21 ± 4 nmol of Pi min^−1 mg^−1,1700 nM and 1670 nM,156.5 ± 24.8 nmol of Pi min^−1 mg^−1,Neither BD-vinblastine or Flutax-2 stimulated ATPase activity,465 ^b nmol of Pi min^−1 mg^−1,83 ± 12,290 ± 40,42 ± 6,–,–,–,–,stimulation of ATP hydrolysis over basal ATPase activity (mouse P-gp mdr1a [1]): ~ 2 fold; increase in KD (decrease in affinity) with AMP-PNP (murine P-gp [4]; AMP-PNP vs nucleotide-free): 1.9 fold and 2 fold; increase in KD (decrease in affinity) in vanadate-trapped state (murine P-gp [4]; ATP and Vi vs nucleotide-free): 6.8 fold
CC(=O)O[C@H]1C(=O)[C@@]2(C)[C@H]([C@H](OC(=O)c3ccccc3)[C@]3(O)C[C@H](OC(=O)[C@H](O)[C@@H](NC(=O)c4ccccc4)c4ccccc4)C(C)=C1C3(C)C)[C@]1(OC(C)=O)CO[C@@H]1C[C@@H]2O [paclitaxel],48 ± 6 nmol of Pi min^−1 mg^−1,–,–,–,–,–,–,–,1.3 ± 0.5 µM,did not displace,displaced,0.5 ± 0.5,–
BODIPY FL verapamil [BD-verapamil],–,–,–,–,–,–,–,–,–,–,–,–,KD [2]: negligible binding
CC[C@]1(O)C[C@@H]2CN(CCc3c([nH]c4ccccc34)[C@@](C(=O)OC)(c3cc4c(cc3OC)N(C)[C@H]3[C@@](O)(C(=O)OC)[C@H](OC(C)=O)[C@]5(CC)C=CCN6CC[C@]43[C@@H]65)C2)C1 [vinblastine],>0 ^a nmol of Pi min^−1 mg^−1,–,–,–,–,–,–,–,2.6 ± 1.0 µM,displaced,displaced,0.4± 0.1,IC50 (murine P-gp [6]): 17500 ± 11000 nM
Oregon Green 488 Paclitaxel [Flutax-2],18 ± 2 nmol of Pi min^−1 mg^−1,3600 nM and 3630 nM,33.2 ± 46.8 nmol of Pi min^−1 mg^−1,no stimulation,500 ^b nmol of Pi min^−1 mg^−1,530 ± 90,490 ± 80,520 ± 90,0.3 ± 0.7 ^d μM,–,–,–,"stimulation of ATPase activity (in words) (mouse P-gp): did not stimulate ATPase activity; stimulation of ATPase activity (in words) (mouse P-gp mdr1a [1]): does not stimulate ATPase activity; initial transport rate (murine P-gp [7]): ~42 pmol (mg of total protein)^−1 min^−1; K1 (substrate concentration for half-maximal stimulation of ATPase activity) (mouse P-gp mdr1a [3]; footnote d = ambiguous, lack of ATPase stimulation): 0.2 ± 0.3 ^d μM; Kd (murine P-gp [4]; nucleotide-free, high-affinity interaction): 519 nM"
